This is an account of results in patent publication US20210269434A1, “TRICYCLIC COMPOUNDS AS INHIBITORS OF KRAS” (Incyte Corporation, priority 2020, published 2021).

Test [1] deals with KRAS G12C (Homo sapiens, UniProt P01116, G12C). Kind of test: GDP-GTP exchange assay (KRAS_G12C exchange). The format is biochemical. Conditions: bodipy-GDP loaded KRAS G12C 2.5 nM, SOS1 150 nM, GppNHp; 2 hours pre-incubation, 2 hours reaction; read-out: G12C_exchange. The gist of the method:
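Fluorescence exchange of bodipy-GDP for GppNHp, SOS1-driven, read at 485/520 nm; IC50 from four-parameter variable-slope fit. Both mutants used 2.5 nM final labelled protein and a 2 h compound pre-incubation. G12C reaction had 500 uM GppNHp and 150 nM SOS1 for 2 h; G12D ran 4 h.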

Test [2] relates to MIA PaCa-2 (KRAS G12C) cells. Put plainly: Cellular pERK HTRF assay (KRAS_G12C pERK). Conditions: Homo sapiens, MIA PaCa-2, 4 hours incubation, read-out: G12C_pERK. The format is cell-based, human. The gist of the method: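 MIA PaCa-2 cells plated overnight, then exposed to compound for 4 h at 37 °C (G12C compounds). Phospho-ERK1/2 measured in lysates by HTRF (665/620 nm) after overnight antibody incubation; IC50 from percent inhibition versus log concentration.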
For orientation: In TR-FRET formats the signal depends on donor and acceptor labels being close together.

Chain of KRAS G12C (P01116 1-188 isoform P01116-2 G12C): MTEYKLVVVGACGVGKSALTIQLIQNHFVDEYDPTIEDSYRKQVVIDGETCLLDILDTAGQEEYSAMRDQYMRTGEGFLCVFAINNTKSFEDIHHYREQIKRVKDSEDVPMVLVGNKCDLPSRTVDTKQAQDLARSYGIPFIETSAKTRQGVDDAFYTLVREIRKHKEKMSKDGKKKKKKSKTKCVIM

On to `CC#CC(=O)N1CC[C@H](n2nnc3c(N4CC(N(C)C)C4)nc4c(F)c(-c5cccc(C)c5Cl)c(C)cc4c32)C[C@H]1CC#N` [Example 250, 2-((2S,4S)-1-(but-2-ynoyl)-4-(7-(2-chloro-3-methylphenyl)-4-(3-(dimethylamino)azetidin-1-yl)-6-fluoro-8-methyl-1H-[1,2,3]triazolo[4,5-c]quinolin-1-yl)piperidin-2-yl)acetonitrile], for which the IC50 in test [1] and in test [2] was not above 100 nM throughout.

`C=CC(=O)N1CCC(n2cnc3c(N4CC(N(C)CC)C4)nc4c(F)c(-c5cccc6cccc(Cl)c56)c(Cl)cc4c32)C[C@H]1CC#N` (single isomer, unassigned) [Example 214b]: the IC50 in test [1] and in test [2] was not above 100 nM in each case.

With `C=CC(=O)N1CC[C@H](n2cnc3c(N4CC(N(C)C)C4)nc4c(F)c(-c5cccc6c5OCCO6)c(Cl)cc4c32)C[C@H]1CC#N` [Example 69, 2-((2S,4S)-1-acryloyl-4-(8-chloro-7-(2,3-dihydrobenzo[b][1,4]dioxin-5-yl)-4-(3-(dimethylamino)azetidin-1-yl)-6-fluoro-1H-imidazo[4,5-c]quinolin-1-yl)piperidin-2-yl)acetonitrile], the IC50 in test [1] and in test [2] was not above 100 nM each time.

For the compound `C=CC(=O)N1CC[C@H](n2nnc3c(N4CC(N(C)C)C4)nc4c(F)c(-c5ccc(F)c(C)c5C)c(Cl)cc4c32)C[C@H]1CC#N` [Example 116, 2-((2S,4S)-1-acryloyl-4-(8-chloro-4-(3-(dimethylamino)azetidin-1-yl)-6-fluoro-7-(4-fluoro-2,3-dimethylphenyl)-1H-[1,2,3]triazolo[4,5-c]quinolin-1-yl)piperidin-2-yl)acetonitrile], the IC50 in test [1] and in test [2] was not above 100 nM each time.

Regarding `C=CC(=O)N1CC[C@H](n2nnc3c(N4CC(C)(N(C)C)C4)nc4c(F)c(-c5cccc(Cl)c5C)c(C)cc4c32)C[C@H]1CC#N` [Example 101, 2-((2S,4S)-1-acryloyl-4-(7-(3-chloro-2-methylphenyl)-4-(3-(dimethylamino)-3-methylazetidin-1-yl)-6-fluoro-8-methyl-1H-[1,2,3]triazolo[4,5-c]quinolin-1-yl)piperidin-2-yl)acetonitrile], the IC50 in test [1] and in test [2] was not above 100 nM each time.

On to `C=CC(=O)N1CC[C@H](n2nnc3c(N4CC(C)(N(C)C)C4)nc4c(F)c(-c5cccc(C)c5Cl)c(C)cc4c32)C[C@H]1CC#N` [Example 255, 2-((2S,4S)-1-acryloyl-4-(7-(2-chloro-3-methylphenyl)-4-(3-(dimethylamino)-3-methylazetidin-1-yl)-6-fluoro-8-methyl-1H-[1,2,3]triazolo[4,5-c]quinolin-1-yl)piperidin-2-yl)acetonitrile], for which the IC50 in test [1] and in test [2] was not above 100 nM each time.

For `C=CC(=O)N1CC[C@H](n2nnc3c(N4CCOCC4=O)nc4c(F)c(-c5cccc(C)c5Cl)c(C)cc4c32)C[C@H]1CC#N` [Example 259, 2-((2S,4S)-1-acryloyl-4-(7-(2-chloro-3-methylphenyl)-6-fluoro-8-methyl-4-(3-oxomorpholino)-1H-[1,2,3]triazolo[4,5-c]quinolin-1-yl)piperidin-2-yl)acetonitrile], the IC50 in test [1] and in test [2] was not above 100 nM in each case.

In the case of `C=CC(=O)N1CC[C@H](n2cnc3c(N4CC(N(C)C)C4)nc4c(F)c(-c5c(C)c(Cl)cc6[nH]ncc56)c(Cl)cc4c32)C[C@H]1CC#N` (single isomer, unassigned) [Example 267a], the IC50 in test [1] and in test [2] was not above 100 nM throughout.

As to `CC#CC(=O)N1CC[C@H](n2nnc3c(N4CC(N(C)C)C4)nc4c(F)c(-c5c(C)c(Cl)cc6[nH]ncc56)c(C#N)cc4c32)C[C@H]1CC#N` [Example 170, 1-((2S,4S)-1-(but-2-ynoyl)-2-(cyanomethyl)piperidin-4-yl)-7-(6-chloro-5-methyl-1H-indazol-4-yl)-4-(3-(dimethylamino)azetidin-1-yl)-6-fluoro-1H-[1,2,3]triazolo[4,5-c]quinoline-8-carbonitrile], the IC50 in test [1] and in test [2] was not above 100 nM each time.

`Cc1cccc(-c2c(C)cc3c(nc(OC[C@@H]4CCCN4C)c4nnn([C@H]5CCN(C(=O)/C=C/CF)[C@H](CC#N)C5)c43)c2F)c1Cl` [Example 253, 2-((2S,4S)-4-(7-(2-chloro-3-methylphenyl)-6-fluoro-8-methyl-4-(((S)-1-methylpyrrolidin-2-yl)methoxy)-1H-[1,2,3]triazolo[4,5-c]quinolin-1-yl)-1-((E)-4-fluorobut-2-enoyl)piperidin-2-yl)acetonitrile]: the IC50 in test [1] and in test [2] was not above 100 nM each time.

As for `C=CC(=O)N1C[C@H](n2cnc3c(N4CC(N(C)C)C4)nc4c(F)c(-c5cccc(C)c5C)c(Cl)cc4c32)C[C@@H]1CC#N` [Example 62, 2-((2R,4R)-1-acryloyl-4-(8-chloro-4-(3-(dimethylamino)azetidin-1-yl)-7-(2,3-dimethylphenyl)-6-fluoro-1H-imidazo[4,5-c]quinolin-1-yl)pyrrolidin-2-yl)acetonitrile], the IC50 in test [1] and in test [2] was not above 100 nM in each case.

As to `C=CC(=O)N1C[C@H](n2cnc3c(N4CC(N(C)C)C4)nc4c(F)c(-c5cc(O)cc6ccccc56)c(Cl)cc4c32)C[C@@H]1CC#N` [Example 32, 2-((2R,4R)-1-acryloyl-4-(8-chloro-4-(3-(dimethylamino)azetidin-1-yl)-6-fluoro-7-(3-hydroxynaphthalen-1-yl)-1H-imidazo[4,5-c]quinolin-1-yl)pyrrolidin-2-yl)acetonitrile], the IC50 in test [1] and in test [2] was not above 100 nM throughout.

Consider `CC#CC(=O)N1CC[C@H](n2nnc3c(N4CC(C)(N(C)C)C4)nc4c(F)c(-c5c(C)c(Cl)cc6[nH]ncc56)c(C)cc4c32)C[C@H]1CC#N` (single isomer, unassigned) [Example 194a], for which the IC50 in test [1] and in test [2] was not above 100 nM throughout.

On to `Cc1cc2c(nc(OC[C@@H]3CCCN3C)c3nnn([C@H]4CCN(C(=O)/C=C/CN(C)C)[C@H](CC#N)C4)c32)c(F)c1-c1ccccc1C(F)(F)F` [Example 158a, 2-((2S,4S)-1-((E)-4-(dimethylamino)but-2-enoyl)-4-(6-fluoro-8-methyl-4-(((S)-1-methylpyrrolidin-2-yl)methoxy)-7-(2-(trifluoromethyl)phenyl)-1H-[1,2,3]triazolo[4,5-c]quinolin-1-yl)piperidin-2-yl)acetonitrile], for which the IC50 in test [1] and in test [2] was not above 100 nM in each case.

On to `CC#CC(=O)N1CC[C@H](n2cnc3c(N4CC(N(C)C)C4)nc4c(F)c(-c5c(C)c(Cl)cc6[nH]ncc56)c(Cl)cc4c32)C[C@H]1CC#N` [Example 177a, 2-((2S,4S)-1-(but-2-ynoyl)-4-(8-chloro-7-(6-chloro-5-methyl-1H-indazol-4-yl)-4-(3-(dimethylamino)azetidin-1-yl)-6-fluoro-1H-imidazo[4,5-c]quinolin-1-yl)piperidin-2-yl)acetonitrile], for which the IC50 in test [1] and in test [2] was not above 100 nM throughout.

As to `CC#CC(=O)N1CC[C@H](n2nnc3c(OC[C@@H]4CCCN4C)nc4c(F)c(-c5cccc(C)c5Cl)c(C)cc4c32)C[C@H]1CC#N` [Example 254, 2-((2S,4S)-1-(but-2-ynoyl)-4-(7-(2-chloro-3-methylphenyl)-6-fluoro-8-methyl-4-(((S)-1-methylpyrrolidin-2-yl)methoxy)-1H-[1,2,3]triazolo[4,5-c]quinolin-1-yl)piperidin-2-yl)acetonitrile], the IC50 in test [1] and in test [2] was not above 100 nM each time.
